Test results as given in ChEMBL document CHEMBL2390858, “Design, synthesis and anti-tuberculosis activity of 1-adamantyl-3-heteroaryl ureas with improved in vitro pharmacokinetic properties” (Bioorg Med Chem, 2013).
Converted amounts (≈) assume the structure as drawn.

Tests used:
[1] = system: Proteus vulgaris; test: microbe, parasite or virus in culture
[2] = system: Bacillus anthracis; test: microbe, parasite or virus in culture; settings: Sterne
[3] = system: Acinetobacter; test: microbe, parasite or virus in culture
[4] = system: Pseudomonas aeruginosa; test: microbe, parasite or virus in culture
[5] = system: Staphylococcus aureus; test: microbe, parasite or virus in culture; settings: ATCC 29213
[6] = system: Klebsiella pneumoniae; test: microbe, parasite or virus in culture
[7] = system: Bacillus subtilis; test: microbe, parasite or virus in culture
[8] = system: Enterococcus faecalis; test: microbe, parasite or virus in culture
[9] = system: Burkholderia cepacia; test: microbe, parasite or virus in culture
[10] = system: Staphylococcus aureus; test: microbe, parasite or virus in culture; settings: NRS70
[11] = biological target: T1, Bifunctional epoxide hydrolase 2 (Homo sapiens, UniProt P34913)
T1 sequence (P34913 whole entry): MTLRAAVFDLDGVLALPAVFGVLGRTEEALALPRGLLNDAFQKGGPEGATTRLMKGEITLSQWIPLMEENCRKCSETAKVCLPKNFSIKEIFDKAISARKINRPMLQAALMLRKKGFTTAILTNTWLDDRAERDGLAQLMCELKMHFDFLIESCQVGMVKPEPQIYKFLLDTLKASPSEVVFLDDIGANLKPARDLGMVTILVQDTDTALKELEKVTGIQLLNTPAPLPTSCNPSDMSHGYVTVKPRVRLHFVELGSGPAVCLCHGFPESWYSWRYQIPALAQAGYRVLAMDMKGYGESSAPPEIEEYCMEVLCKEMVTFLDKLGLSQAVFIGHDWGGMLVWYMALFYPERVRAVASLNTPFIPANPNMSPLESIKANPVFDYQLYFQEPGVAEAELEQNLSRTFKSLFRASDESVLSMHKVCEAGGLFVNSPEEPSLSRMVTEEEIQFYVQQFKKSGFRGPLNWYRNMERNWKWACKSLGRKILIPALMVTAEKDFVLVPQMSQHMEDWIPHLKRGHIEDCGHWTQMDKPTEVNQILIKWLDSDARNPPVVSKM

[12] = system: Streptococcus pyogenes; test: microbe, parasite or virus in culture
[13] = system: Escherichia coli; test: microbe, parasite or virus in culture; settings: K-12
[14] = system: Mycobacterium tuberculosis; test: microbe, parasite or virus in culture; settings: H37Rv, 168 h
[15] = system: Vero; test: cells; settings: Chlorocebus sabaeus, 72 h
[16] = system: Proteus mirabilis; test: microbe, parasite or virus in culture
[17] = system: Streptococcus pneumoniae; test: microbe, parasite or virus in culture
[18] = buffer, 18 h, pH 7.4

Row | SMILES | MIC [1] | MIC [2] | MIC [3] | MIC [4] | MIC [5] | MIC [6] | MIC [7] | MIC [8] | MIC [9] | MIC [10] | IC50 [11] | MIC [12] | MIC [13] | MIC [14] | IC50 [15] | MIC [16] | MIC [17] | solubility [18]
1 | CCCn1nc(NC(=O)NC23CC4CC(CC(C4)C2)C3)cc1C | > 200 µg/mL | > 200 µg/mL | > 200 µg/mL | > 200 µg/mL | > 200 µg/mL | > 200 µg/mL | > 200 µg/mL | > 200 µg/mL | > 200 µg/mL | > 200 µg/mL | 751 nM | > 200 µg/mL | > 200 µg/mL | 1.56 µg/mL (≈ 4.93 µM) | 26 µg/mL (≈ 82.2 µM) | > 200 µg/mL | > 200 µg/mL | 
2 | Cc1csc(NC(=O)NC2C3CC4CC(C3)CC2C4)n1 (centres undefined) | > 200 µg/mL | > 200 µg/mL | > 200 µg/mL | > 200 µg/mL | 200 µg/mL (≈ 686 µM) | > 200 µg/mL | > 200 µg/mL | > 200 µg/mL | > 200 µg/mL | 100 µg/mL (≈ 343 µM) | 710 nM | 200 µg/mL (≈ 686 µM) | > 200 µg/mL | 1.56 µg/mL (≈ 5.35 µM) | 60 µg/mL (≈ 206 µM) | > 200 µg/mL | 100 µg/mL (≈ 343 µM) | 
3 | O=C(Nc1nnc(C2CC2)o1)NC1C2CC3CC(C2)CC1C3 (centres undefined) | > 200 µg/mL | > 200 µg/mL | > 200 µg/mL | > 200 µg/mL | 200 µg/mL (≈ 661 µM) | > 200 µg/mL | > 200 µg/mL | > 200 µg/mL | 200 µg/mL (≈ 661 µM) | > 200 µg/mL | 2410 nM | > 200 µg/mL | > 200 µg/mL | 3.13 µg/mL (≈ 10.4 µM) | 180 µg/mL (≈ 595 µM) | > 200 µg/mL | > 200 µg/mL | 
4 | CCn1nc(NC(=O)NC2C3CC4CC(C3)CC2C4)cc1C (centres undefined) | > 200 µg/mL | > 200 µg/mL | > 200 µg/mL | > 200 µg/mL | 100 µg/mL (≈ 331 µM) | > 200 µg/mL | > 200 µg/mL | > 200 µg/mL | > 200 µg/mL | > 200 µg/mL | 2460 nM | > 200 µg/mL | > 200 µg/mL | 3.13 µg/mL (≈ 10.3 µM) | 163 µg/mL (≈ 539 µM) | > 200 µg/mL | > 200 µg/mL | 
5 | COc1ccc(NS(=O)(=O)c2ccc(NC(=O)NC34CC5CC(CC(C5)C3)C4)cc2)nn1 | 200 µg/mL (≈ 437 µM) | 50 µg/mL (≈ 109 µM) | > 200 µg/mL | > 200 µg/mL | 200 µg/mL (≈ 437 µM) | > 200 µg/mL | 200 µg/mL (≈ 437 µM) | 200 µg/mL (≈ 437 µM) | 200 µg/mL (≈ 437 µM) | 100 µg/mL (≈ 219 µM) | 7 nM | > 200 µg/mL | 200 µg/mL (≈ 437 µM) | 25 µg/mL (≈ 54.6 µM) |  | 100 µg/mL (≈ 219 µM) | 100 µg/mL (≈ 219 µM) | 14.1 µg/mL (≈ 30.8 µM)
6 | Cc1cc(NS(=O)(=O)c2ccc(NC(=O)NC34CC5CC(CC(C5)C3)C4)cc2)no1 | > 200 µg/mL | > 200 µg/mL | > 200 µg/mL | > 200 µg/mL | > 200 µg/mL | > 200 µg/mL | > 200 µg/mL | > 200 µg/mL | > 200 µg/mL | 50 µg/mL (≈ 116 µM) | 292 nM | > 200 µg/mL | > 200 µg/mL | 25 µg/mL (≈ 58.1 µM) |  | > 200 µg/mL | > 200 µg/mL | 2 µg/mL (≈ 4.65 µM)
7 | Cc1nc(NS(=O)(=O)c2ccc(NC(=O)NC34CC5CC(CC(C5)C3)C4)cc2)oc1C | > 200 µg/mL | > 200 µg/mL | > 200 µg/mL | > 200 µg/mL | > 200 µg/mL | > 200 µg/mL | > 200 µg/mL | > 200 µg/mL | > 200 µg/mL | > 200 µg/mL | 13 nM | > 200 µg/mL | > 200 µg/mL | > 25 µg/mL |  | > 200 µg/mL | > 200 µg/mL | 27.1 µg/mL (≈ 61 µM)
8 | Cc1ccnc(NS(=O)(=O)c2ccc(NC(=O)NC34CC5CC(CC(C5)C3)C4)cc2)n1 | > 200 µg/mL | 100 µg/mL (≈ 226 µM) | 100 µg/mL (≈ 226 µM) | > 200 µg/mL | > 200 µg/mL | > 200 µg/mL | > 200 µg/mL | > 200 µg/mL | > 200 µg/mL | > 200 µg/mL | 17 nM | > 200 µg/mL | > 200 µg/mL | > 25 µg/mL |  | > 200 µg/mL | > 200 µg/mL | 2.5 µg/mL (≈ 5.66 µM)
9 | Cc1noc(NS(=O)(=O)c2ccc(NC(=O)NC34CC5CC(CC(C5)C3)C4)cc2)c1C | > 200 µg/mL | > 200 µg/mL | > 200 µg/mL | > 200 µg/mL | > 200 µg/mL | > 200 µg/mL | > 200 µg/mL | > 200 µg/mL | > 200 µg/mL | > 200 µg/mL | 31 nM | > 200 µg/mL | > 200 µg/mL | 25 µg/mL (≈ 56.2 µM) |  | > 200 µg/mL | > 200 µg/mL | 27.3 µg/mL (≈ 61.4 µM)
10 | O=C(Nc1ccncc1)NC12CC3CC(CC(C3)C1)C2 | > 200 µg/mL | > 200 µg/mL | > 200 µg/mL | > 200 µg/mL | > 200 µg/mL | > 200 µg/mL | > 200 µg/mL | > 200 µg/mL | > 200 µg/mL | > 200 µg/mL | 174 nM | > 200 µg/mL | > 200 µg/mL | 18 µg/mL (≈ 66.3 µM) |  | > 200 µg/mL | > 200 µg/mL | 7 µg/mL (≈ 25.8 µM)
11 | O=C(Nc1cccnc1)NC12CC3CC(CC(C3)C1)C2 | > 200 µg/mL | > 200 µg/mL | > 200 µg/mL | > 200 µg/mL | > 200 µg/mL | > 200 µg/mL | > 200 µg/mL | > 200 µg/mL | > 200 µg/mL | > 200 µg/mL | 113 nM | > 200 µg/mL | > 200 µg/mL | 12.5 µg/mL (≈ 46.1 µM) |  | > 200 µg/mL | > 200 µg/mL | 6.7 µg/mL (≈ 24.7 µM)
12 | O=C(Nc1ncccn1)NC12CC3CC(CC(C3)C1)C2 | > 200 µg/mL | > 200 µg/mL | > 200 µg/mL | > 200 µg/mL | > 200 µg/mL | > 200 µg/mL | > 200 µg/mL | > 200 µg/mL | > 200 µg/mL | > 200 µg/mL | 24000 nM | > 200 µg/mL | > 200 µg/mL | 200 µg/mL (≈ 734 µM) |  | > 200 µg/mL | > 200 µg/mL | 6.9 µg/mL (≈ 25.3 µM)
13 | O=C(Nc1ccncn1)NC12CC3CC(CC(C3)C1)C2 | > 200 µg/mL | > 200 µg/mL | > 200 µg/mL | > 200 µg/mL | 100 µg/mL (≈ 367 µM) | > 200 µg/mL | 50 µg/mL (≈ 184 µM) | > 200 µg/mL | 200 µg/mL (≈ 734 µM) | > 200 µg/mL | 775 nM | > 200 µg/mL | > 200 µg/mL | 25 µg/mL (≈ 91.8 µM) |  | > 200 µg/mL | 50 µg/mL (≈ 184 µM) | 15.5 µg/mL (≈ 56.9 µM)
14 | O=C(Nc1ncncn1)NC12CC3CC(CC(C3)C1)C2 | > 200 µg/mL | > 200 µg/mL | > 200 µg/mL | > 200 µg/mL | > 200 µg/mL | > 200 µg/mL | > 200 µg/mL | > 200 µg/mL | > 200 µg/mL | > 200 µg/mL | 79 nM | > 200 µg/mL | > 200 µg/mL | 125 µg/mL (≈ 457 µM) |  | > 200 µg/mL | > 200 µg/mL | 7.2 µg/mL (≈ 26.3 µM)
15 | O=C(Nc1nccnn1)NC12CC3CC(CC(C3)C1)C2 | > 200 µg/mL | > 200 µg/mL | > 200 µg/mL | > 200 µg/mL | > 200 µg/mL | > 200 µg/mL | > 200 µg/mL | > 200 µg/mL | > 200 µg/mL | > 200 µg/mL | 1010 nM | > 200 µg/mL | > 200 µg/mL | 200 µg/mL (≈ 732 µM) |  | > 200 µg/mL | > 200 µg/mL | 6.8 µg/mL (≈ 24.9 µM)
16 | O=C(Nc1ccon1)NC12CC3CC(CC(C3)C1)C2 | > 200 µg/mL | > 200 µg/mL | > 200 µg/mL | > 200 µg/mL | > 200 µg/mL | > 200 µg/mL | > 200 µg/mL | 100 µg/mL (≈ 383 µM) | 100 µg/mL (≈ 383 µM) | > 200 µg/mL | 46 nM | > 200 µg/mL | > 200 µg/mL | 50 µg/mL (≈ 191 µM) |  | > 200 µg/mL | > 200 µg/mL | 20.3 µg/mL (≈ 77.7 µM)
17 | Cc1cc(NC(=O)NC23CC4CC(CC(C4)C2)C3)no1 | > 200 µg/mL | > 200 µg/mL | > 200 µg/mL | > 200 µg/mL | 200 µg/mL (≈ 726 µM) | > 200 µg/mL | 200 µg/mL (≈ 726 µM) | > 200 µg/mL | > 200 µg/mL | > 200 µg/mL | 136 nM | > 200 µg/mL | > 200 µg/mL | 27 µg/mL (≈ 98.1 µM) |  | > 200 µg/mL | > 200 µg/mL | 25.9 µg/mL (≈ 94.1 µM)
